In patent US8461166B2, “Polyalkylene glycol derivatives of inhibitors of epidermal growth factor receptor tyrosine kinase” (Hadasit Medical Research Services and Development Ltd., priority 2005, dated 2013):
pIC50: −log10 of the molar value. Values after ≈ are worked out from the molar mass of the structure shown.

Key:
EGFR = target: T1, EGFR (Homo sapiens, UniProt P00533); assay: Irreversibility test protocol: EGFR autophosphorylation inhibition in intact A431 cells (Western blot); type: cell-based; details: for irreversible inhibitory characteristic (irreversible binding to EGFR): A431 cells, EGF stimulation 8 hours after removal of the inhibitor vs immediately after
T1 construct: endogenous in cells; host or cells: A431 human epidermoid vulval carcinoma cells
Protocol: Irreversibility Test Protocol: The inhibitory potency of compounds 1a-c, as well as the irreversible nature of EGFR inhibition thereof were evaluated in intact A431 cells, according to published procedures (Smail et al., 1999). In brief, A431 human epidermoid vulval carcinoma were grown in six-well plates for 48 hours and further maintained in serum-free media for additional 18 hours. Duplicate sets of cells were incubated with increasing concentrations of the tested inhibitor for one hour. One set of the cells was thereafter stimulated with EGF, immediately after removal of the tested inhibitor. Another set of the cells was washed to remove the inhibitor, and EGF stimulation was carried out 8 hours after removal of the inhibitor from the medium. Cell lysates were prepared and loaded onto SDS-PAGE (8% acryl amide) for Western Blot analysis, and the extent of EGFR phosphorylation was evaluated by measuring the signal intensity of the corresponding phosphotyrosine band using a mix of anti-phosphotyrosine antibodies, PY20 (Santa Cruz Biotechnology Inc.) and 4G10 (produced from Su4G10 hybridoma cells). The degree of EGFR phosphorylation was measured for each set of cells and the IC50 values of Compounds 1a-c and 10b, vis-à-vis the level of EGFR's phosphotyrosine content were determined. A minimum of two different assays with similar results were considered. Each experiment was performed in duplicates.
The inhibitory potency of exemplary compounds according to the present embodiments, as well as the extent of their irreversible inhibition of the EGFR were first evaluated in intact A431 cells, using the protocol described hereinabove. The IC50 values were determined by the extent of EGFR phosphorylation at each inhibitor concentration either immediately after or 8 hours post removal of the tested inhibitor from the medium.

[1] = Partition coefficient determination (1-octanol/buffer, HPLC); type: physicochemical; details: 1-octanol / sodium phosphate buffer 0.1 M, pH 7.4; read-out: Log P (partition coefficient)
Protocol: Partition coefficient determination: Compounds 1a-c and 10b, ML04 and ML05 (3 mg) were dissolved in sodium phosphate buffer (0.1 M, pH 7.4, 5 ml) and 1-octanol (1 ml) and the resulting mixture was vortexed for 2 minutes, filtered, and maintained at room temperature for 10 minutes. The reaction mixture was then centrifuged at 4000 g for 10 minutes. Fifty (50) μl portions were taken from the organic (1-octanol) and from the aqueous (buffer) layers, and were dissolved in 0.45 ml acetonitrile. The samples were analyzed by HPLC system (C-18 analytical column, a mixture of 55% acetonitrile:45% acetate buffer 0.1 M, pH 3.8 as a mobile phase, flow rate of 1 ml/minute). The partition coefficients (Log P) were determined by the concentration ratio of the tested compound in the organic phase and the aqueous phase. Measurements were performed in triplicate.

[2] = Water solubility determination (HPLC); type: physicochemical; details: aqueous buffer, thermodynamic from solid; MOPS buffer pH 7.4, room temperature
Protocol: DMSO (1 ml) and MOPS buffer pH 7.4 (1 ml) were separately added to test tubes containing the tested compound (Compounds 1a-c and 10b, ML04 or ML05), such that for each compound, two test tubes were prepared. The tubes were sonicated at room temperature for 20 minute, left intact for 10 minutes, and were then filtered through a 0.45 μm filter. Each of the DMSO solutions was diluted 10-folds with DMSO. A 50 μl sample of each solution was analyzed by HPLC (using C-18 analytical column, a mixture of 55% CH3CN:45% acetate buffer 0.1 M, pH 3.8, as a mobile phase at a flow rate of 1 ml/minute, and a UV detector operated at 254 nm). Measurements were performed in triplicate.

T1 sequence (P00533 25-1210): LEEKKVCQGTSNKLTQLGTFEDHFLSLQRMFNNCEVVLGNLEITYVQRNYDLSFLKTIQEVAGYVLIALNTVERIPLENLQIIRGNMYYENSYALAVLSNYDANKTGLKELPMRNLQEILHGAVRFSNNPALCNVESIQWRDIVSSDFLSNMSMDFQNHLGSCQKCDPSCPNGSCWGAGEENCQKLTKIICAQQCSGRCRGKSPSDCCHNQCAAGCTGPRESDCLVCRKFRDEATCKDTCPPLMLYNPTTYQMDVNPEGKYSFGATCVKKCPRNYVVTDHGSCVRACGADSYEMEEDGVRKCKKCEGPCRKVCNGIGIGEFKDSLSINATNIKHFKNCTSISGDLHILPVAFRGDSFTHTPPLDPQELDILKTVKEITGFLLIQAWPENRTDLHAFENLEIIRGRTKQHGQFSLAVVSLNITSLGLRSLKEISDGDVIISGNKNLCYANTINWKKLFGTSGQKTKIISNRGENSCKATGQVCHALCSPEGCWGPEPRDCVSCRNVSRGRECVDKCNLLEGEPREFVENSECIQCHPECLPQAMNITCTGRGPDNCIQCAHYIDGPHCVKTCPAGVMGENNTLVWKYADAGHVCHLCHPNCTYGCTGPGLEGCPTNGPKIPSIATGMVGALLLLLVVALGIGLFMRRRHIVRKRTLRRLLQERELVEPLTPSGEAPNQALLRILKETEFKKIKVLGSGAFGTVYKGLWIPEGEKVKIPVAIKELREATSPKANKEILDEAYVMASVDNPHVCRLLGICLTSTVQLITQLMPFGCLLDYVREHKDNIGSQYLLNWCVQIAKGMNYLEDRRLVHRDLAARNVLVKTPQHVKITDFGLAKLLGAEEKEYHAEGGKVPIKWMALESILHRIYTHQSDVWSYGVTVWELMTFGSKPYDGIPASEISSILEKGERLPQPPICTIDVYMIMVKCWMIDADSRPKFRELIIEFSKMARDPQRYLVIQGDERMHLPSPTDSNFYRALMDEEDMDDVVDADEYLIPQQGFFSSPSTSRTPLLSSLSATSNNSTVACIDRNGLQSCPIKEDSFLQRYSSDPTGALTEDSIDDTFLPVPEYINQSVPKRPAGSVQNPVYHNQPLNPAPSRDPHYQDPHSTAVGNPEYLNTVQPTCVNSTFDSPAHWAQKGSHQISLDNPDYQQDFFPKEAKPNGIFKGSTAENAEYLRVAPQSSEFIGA

| Structure (SMILES) | irreversible inhibitory characteristic (irreversible binding to EGFR) (EGFR) | melting point [°C] | logP [1] | solubility at 20 min [2] [µg/mL] | pIC50 (EGFR; intact A431 cells, 1 hour incubation with inhibitor, EGF stimulation, read-out: IC50 vis-à-vis the level of EGFR's phosphotyrosine content) |
| --- | --- | --- | --- | --- | --- |
| O=C(CCl)Nc1cc2c(Nc3cc(Cl)c(Cl)cc3F)ncnc2cc1OCCOCCF [Compound 1a, 2-Chloro-N-{4-(4,5-Dichloro-2-fluoro-phenylamino)-7-[2-(2-fluoro-ethoxy)-ethoxy]-quinazoline-6-yl}-acetamide] | irreversibly bind to the EGFR | 167 to 169 |  |  |  |
| O=C(CCl)Nc1cc2c(Nc3cc(Cl)c(Cl)cc3F)ncnc2cc1OCCOCCOCCOCCF [Compound 1b, 2-Chloro-N-[4-(4,5-Dichloro-2-fluoro-phenylamino)-7-(2-{2-[2-(2-fluoro-ethoxy)-ethoxy]-ethoxy}-ethoxy)-quinazoline-6-yl]-acetamide] | irreversibly bind to the EGFR | 135 to 137 |  |  |  |
| O=C(CCl)Nc1cc2c(Nc3cc(Cl)c(Cl)cc3F)ncnc2cc1OCCOCCOCCOCCOCCOCCF [Compound 1c, 2-Chloro-N-(4-(4,5-Dichloro-2-fluoro-phenylamino)-7-{2-[2-(2-{2-[2-(2-fluoro-ethoxy)-ethoxy]-ethoxy}-ethoxy)-ethoxy]-ethoxy}-quinazoline-6-yl)-acetamide] | irreversibly bind to the EGFR |  |  |  |  |

Further lines, results first:

| irreversible inhibitory characteristic (irreversible binding to EGFR) (EGFR) | melting point [°C] | logP [1] | solubility at 20 min [2] [µg/mL] | pIC50 (EGFR; intact A431 cells, 1 hour incubation with inhibitor, EGF stimulation, read-out: IC50 vis-à-vis the level of EGFR's phosphotyrosine content) | Structure (SMILES) |
| --- | --- | --- | --- | --- | --- |
| irreversible inhibitory characteristic |  | 3.7 | 3.5 (≈ 5.57 µM) | 8.30 | CN(C)CC=CC(=O)Nc1cc2c(Nc3cc(Cl)c(Cl)cc3F)ncnc2cc1OCCOCCOCCOCCF [Compound 10b, 4-dimethylamino-but-2-enoic acid {4-(4,5-Dichloro-2-fluoro-phenylamino)-7-(2-{2-[2-(2-fluoro-ethoxy)-ethoxy]-ethoxy}-ethoxy)-quinazoline-6-yl}-amide] |
|  |  | 3.9 | 0.14 (≈ 0.322 µM) |  | CN(C)CC=CC(=O)Nc1ccc2ncnc(Nc3cc(Cl)c(Cl)cc3F)c2c1 [ML04, 4-dimethylamino-but-2-enoic acid [4-(3,4-dichloro-6-fluoro-phenylamino)-quinazoline-6-yl]-amide, reference compound] |
